Measurements taken from PMC11585924, “Direct measurements of neurosteroid binding to specific sites on GABAA receptors” (British journal of pharmacology, 2024).
Values joined by “and” are separate entries in the source; they are usually repeats but may differ in a detail not shown here. Equal values may be shown once. “Also recorded” adds a separate entry of the source. Read-outs that look alike come from different tables or passages of the source.

Columns and labels:
ELIC-α1^W246LGABAAR = ELIC-α1^W246LGABAAR (Homo sapiens, UniProt P14867, W273L); test: MQ290 FRET in W246L receptors; type: binding; details: W246L vs WT
Method: (§1) To monitor binding of MQ290 to ELIC-α1GABAAR, 100 μl of ELIC-α1GABAAR (0.3 μM) was transferred into a 50-μl window quartz cuvette that was placed in a cuvette holder. The temperature of the cuvette was maintained at 4°C. NaI (final concentration = 100 mM) was added to the protein sample and incubated for 10 min to reduce the emission of hydrophilic tryptophan residues. One-microlitre aliquots of 100× stock solutions of MQ290 (prepared in Buffer A + 0.015% DDM) were sequentially added to the protein sample and incubated for 30 min after each addition. Because MQ290 alone absorbs at 280 nm, emission spectrum (background spectrum) of MQ290 in the absence of protein was also obtained. The MQ290 background spectra were subtracted from the protein-MQ290 emission spectra to obtain the background-corrected spectra and were smoothened using the Savitzky–Golay method before analysis.
(§2) The ELIC-α1GABAAR emission spectrum obtained before the addition of MQ290 was used as the reference to estimate the contribution of ELIC-α1GABAAR tryptophan emission in the presence of MQ290. […] The calculated ELIC-α1GABAAR tryptophan emission spectrum was then subtracted from the background-corrected spectrum to obtain the emission spectrum of the signal resulting from energy transfer (FRET spectrum) from tryptophan to MQ290 (Figure S6). […]

ELIC-α1^Q242LGABAAR = test: MQ290 FRET in Q242L receptors; type: binding, human; details: Q242L vs WT
Method: as §1, §2

ELIC-α1GABAAR [1] = target: T1, ELIC-α1GABAAR (Homo sapiens, UniProt P14867); test: KK200 photolabelling competition, middle-down MS; type: binding; details: 3 μM KK200, 30 μM competitor
Method: The synthesis of the NS photolabelling reagent KK200 is detailed in previous reports ([W. W. L. Cheng et al., 2018]; [Jiang et al., 2016]). […] The samples were then irradiated in a quartz cuvette for 5 min, using a photoreactor emitting light at >320 nm ([Germann et al., 2021]). Sample preparation for tryptic digestion and analysis by LC–MS was performed as previously described ([Sugasawa et al., 2019]). Peptides were separated on a home-packed PLRP-S (Agilent, Santa Clara, CA, USA) column (10 cm × 75 μm, 300 Å) using a 135-min gradient from 10% to 90% acetonitrile and introduced to an Orbitrap-Elite mass spectrometer (Thermo Fisher Scientific, Waltham, MA, USA; RRID:SCR_020548) at 800 nl·min^−1 with a nanospray source. MS acquisition was set as an MS1 Orbitrap scan (resolution of 60,000) followed by top 20 MS2 Orbitrap scans (resolution of 15,000) using data-dependent acquisition and exclusion of singly charged precursors. Fragmentation was performed using high-energy dissociation with normalized energy of 35%. Analysis of data sets was performed using Xcalibur (Thermo Fisher Scientific, Waltham, MA, USA; RRID: SCR_014593) to manually search for TM1, TM2, TM3 or TM4 tryptic peptides with or without NS photolabelling modifications. Photolabelling efficiency was estimated by generating extracted chromatograms of unlabelled and labelled peptides, determining the area under the curve, and calculating the (area of labelled peptide/(area of unlabelled + area of labelled peptide). MS2 spectra of photolabelled TMD peptides were analysed by manual assignment of fragment ions with and without photolabelling modification.

α1β3 GABAA receptors = target: T2, α1β3 GABAA receptors (Homo sapiens, UniProt P14867+P28472); test: Two-electrode voltage clamp of GABA-elicited currents in Xenopus oocytes; type: cell-based; details: for potentiation of GABA-elicited currents: low GABA, wild-type α1β3
T2 construct: expressed in transfected cells; host or cells: Xenopus laevis oocytes, cRNA injected 5:1 (α1:β3)
T2 sequence (P14867 28-456): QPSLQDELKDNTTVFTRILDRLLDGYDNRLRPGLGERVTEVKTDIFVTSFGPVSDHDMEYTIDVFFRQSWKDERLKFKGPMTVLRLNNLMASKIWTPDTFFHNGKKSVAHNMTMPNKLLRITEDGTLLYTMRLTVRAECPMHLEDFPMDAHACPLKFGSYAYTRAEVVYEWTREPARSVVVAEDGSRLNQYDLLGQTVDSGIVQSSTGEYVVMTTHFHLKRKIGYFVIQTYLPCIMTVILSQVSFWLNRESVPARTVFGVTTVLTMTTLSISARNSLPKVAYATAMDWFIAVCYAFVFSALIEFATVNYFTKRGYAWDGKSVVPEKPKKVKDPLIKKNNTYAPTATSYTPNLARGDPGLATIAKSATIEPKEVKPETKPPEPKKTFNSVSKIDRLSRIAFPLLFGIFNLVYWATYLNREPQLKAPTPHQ
T2 sequence (P28472 26-473): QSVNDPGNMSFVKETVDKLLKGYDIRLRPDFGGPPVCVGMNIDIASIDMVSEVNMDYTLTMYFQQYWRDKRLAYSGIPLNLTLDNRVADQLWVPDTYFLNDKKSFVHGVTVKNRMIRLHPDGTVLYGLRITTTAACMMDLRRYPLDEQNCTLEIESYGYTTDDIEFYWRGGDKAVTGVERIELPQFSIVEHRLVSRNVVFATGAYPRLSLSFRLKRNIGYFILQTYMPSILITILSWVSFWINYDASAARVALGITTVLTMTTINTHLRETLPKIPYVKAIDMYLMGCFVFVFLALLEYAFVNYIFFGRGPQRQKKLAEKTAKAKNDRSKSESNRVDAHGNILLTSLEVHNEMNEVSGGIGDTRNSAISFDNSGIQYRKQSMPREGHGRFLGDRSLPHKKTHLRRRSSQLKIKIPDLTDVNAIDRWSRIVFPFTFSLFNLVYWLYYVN
Method: (§3) Receptor expression and electrophysiological recordings were conducted as described in detail previously ([Sugasawa et al., 2020]). In brief, α1β3 GABAA receptors were expressed in oocytes from the African clawed frog (X. laevis). The wild-type α1 and β3 subunits were of human origin (Genbank accession numbers NM_000806.5 and NM_000814.5, respectively). The α1 clone containing the Q-to-L mutation to the classic neurosteroid binding site ([Hosie et al., 2006]) was of rat origin. (The glutamine residue in ELIC-α1GABAAR is Q242, whereas the corresponding residue in rat α1 is Q241. For simplicity, the residue is referred to as Q242 for both rat and ELIC-α1GABAAR.) The oocytes were purchased as quarter ovaries from Xenopus1 (Dexter, MI, USA). Following digestion in 2% w/v (mg·ml^−1) collagenase A, the oocytes were injected with a total of 12 ng cRNA per oocyte in a 5:1 ratio (α1:β3) and incubated at 15°C for 2–3 days prior to electrophysiological recordings in ND96 (96-mM NaCl, 2-mM KCl, 1.8-mM CaCl2, 1-mM MgCl2, 5-mM HEPES; pH 7.4) supplemented with 100 U·ml^−1 penicillin and 100 μg·ml^−1 streptomycin.
(§4) Electrophysiological recordings were conducted at ≈22°C using standard two-electrode voltage clamp. The voltage and current electrodes (G120F-4, OD = 1.20 mm, ID = 0.69 mm; Warner Instruments, Hamden, CT, USA) were filled with 3-M KCl and had resistances of 0.3–1 MΩ. The oocytes were clamped at −60 mV. The chamber (RC-1Z; Warner Instruments) was perfused with ND96 at 5–8 ml·min^−1. Solutions were gravity-applied. The current responses were amplified with an Axoclamp 900A (Molecular Devices, San Jose, CA, USA) or OC-725C amplifier (Warner Instruments), digitized with a Digidata 1200 series digitizer (Molecular Devices) and stored on PC hard drive using pClamp (Molecular Devices; RRID:SCR_011323). Current amplitudes were determined using Clampfit (Molecular Devices).
A standard experiment consisted of a several-minute long applications of GABA followed immediately by a co-application of GABA + modulator and a wash in GABA. For normalization purposes, each cell was exposed to the combination of saturating (1-mM) GABA + 50-μM propofol, assumed to fully activate all receptors in the cell ([Eaton et al., 2016]).

[2] = system: T3, α1^Q242Lβ3 GABAA receptors; test: Two-electrode voltage clamp, α1(Q242L) mutant receptors in Xenopus oocytes; type: cell-based, rat α1, human β3; details: low GABA; α1(Q242L)β3
T3 construct: expressed in transfected cells; host or cells: Xenopus laevis oocytes, cRNA injected 5:1 (α1:β3)
Method: as §3, §4
A standard experiment consisted of a several-minute long applications of GABA followed immediately by a co-application of GABA + modulator and a wash in GABA. […]

ELIC-α1GABAAR [3] = target: T1, ELIC-α1GABAAR; type: binding
Method: One hundred microlitres of ELIC-α1GABAAR (0.3 μM) was transferred into a 50-μl window quartz cuvette maintained at 4°C, and NaI was added to the protein sample to a final concentration of 100 mM and incubated for 10 min. MQ290 was then added at a concentration of 3 μM for 3α-OH NS inhibition curves or 1 μM for 3β-OH NS inhibition curves and incubated for 30 min. One-microlitre aliquots of 3α-OH and 3β-OH NS from their corresponding stock solutions (prepared in Buffer A + 0.015% DDM) were added to achieve concentrations between 0.01 and 30 μM. The background emission spectra of ligands alone were obtained for each ligand concentration in the absence of protein and were subtracted from the protein-ligand emission spectra to yield background subtracted data. The MQ290 FRET spectra for different ligand concentrations were estimated using the method described above. The 370-nm intensities of the FRET spectra were plotted against ligand concentration and fitted to a four-parameter logistic curve to obtain IC50 data (GraphPad Software version 9.4.0, San Diego, CA). Ki values were calculated using the relationship: Ki=IC50/1+LT/Kd
where LT is the concentration of MQ290 and Kd was determined from the MQ290 binding curve.

ELIC-α1GABAAR [4] = target: T1, ELIC-α1GABAAR; type: binding; remark: listed apart in the source
Method: Excitation and emission spectra were obtained using a FluoroMax Plus-C fluorometer (Horiba Instruments, Tokyo, Japan). For obtaining emission spectra, 280 nm was used as the excitation wavelength and emission was recorded from 300 to 450 nm. The excitation and emission slit widths used for obtaining emission spectra were 1 and 5 nm. For protein-ligand binding experiments, three emission spectra were obtained and averaged after each addition of a ligand or sodium iodide (NaI). The averaged spectra were smoothed using the Savitzky–Golay method before analysis.
One hundred microlitres of purified ELIC-α1GABAAR (0.3 μM in Buffer A + 0.015% DDM) was transferred into a 50-μl window quartz cuvette (Starna Cells, Atascadero, CA, USA), which was placed in a cuvette holder maintained at 4°C. […] Two microlitres of NaI (AK Scientific, Union City, CA, USA; 5-M stock prepared in 0.1-Mm sodium hydrosulfite [Sigma-Aldrich, St. Louis, MO, USA]) was added to the protein (final concentration = 100 mM) and incubated for 10 min to reduce the fluorescence emission from hydrophilic tryptophans. To measure the concentration–dependent effects of NS on tryptophan fluorescence, 1 μl of NS from each 100× stock solution was sequentially added to the NaI-equilibrated protein and thoroughly mixed to achieve concentrations from 0.01 to 50 μM. […]

T1 sequence (P14867 other isoform, or with tags, fused parts or gaps): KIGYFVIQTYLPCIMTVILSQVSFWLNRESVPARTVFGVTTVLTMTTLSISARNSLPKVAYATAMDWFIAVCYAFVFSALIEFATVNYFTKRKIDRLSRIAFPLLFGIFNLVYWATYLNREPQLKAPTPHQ
T1 sequence (P0C7B7 1-198, further chain): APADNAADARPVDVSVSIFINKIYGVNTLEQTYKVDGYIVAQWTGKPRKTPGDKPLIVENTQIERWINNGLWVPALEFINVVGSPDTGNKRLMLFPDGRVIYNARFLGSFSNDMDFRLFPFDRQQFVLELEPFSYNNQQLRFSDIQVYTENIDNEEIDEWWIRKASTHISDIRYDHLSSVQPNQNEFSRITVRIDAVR
ELIC-α1^W246LGABAAR, sequence (P14867 other isoform, or with tags, fused parts or gaps W273L): as the sequence (P14867 other isoform, or with tags, fused parts or gaps) above, with W25L counted along it
ELIC-α1^W246LGABAAR, sequence (P0C7B7 1-198, further chain): as the sequence (P0C7B7 1-198, further chain) above

| Structure (SMILES) | potentiation of GABA-elicited currents (α1β3 GABAA receptors) | potentiating effect with α1(Q242L) mutation [2] | Hill slope (ELIC-α1GABAAR [3]; 3α-OH NS, MQ290 3 μM) | Hill slope (ELIC-α1GABAAR [3]; 3β-OH NS, MQ290 1 μM) | also measured |
| --- | --- | --- | --- | --- | --- |
| CO[C@H]1CCC2C3=CC=C4C[C@H](O)CC[C@]4(C)C3=CC[C@@]21C (stereo partly drawn) [MQ290] | potentiates | eliminated | – | – | reduction of maximal MQ290 FRET signal in W246L receptors (ELIC-α1^W246LGABAAR): ~ 90% and 90%; MQ290 FRET signal in Q242L mutants (ELIC-α1^Q242LGABAAR): significantly reduced; prevention of KK200 photolabelling of TM3 (Y309) (ELIC-α1GABAAR [1]): significantly different than control; also recorded: prevented; EC50 (α1β3 GABAA receptors): 1 to 10 µM |
| CC(=O)[C@H]1CC[C@H]2[C@@H]3CC[C@H]4C[C@](C)(O)CC[C@]4(C)[C@H]3CC[C@]12C [GX, ganaxolone] | – | – | −1.57 ± 0.26 | – | – |
| CC(=O)[C@H]1CCC2C3CC[C@@H]4C[C@@H](O)CC[C@]4(C)C3CC[C@@]21C (stereo partly drawn) [Epi-PREG, Epi-pregnanolone] | potentiates | prevented | – | −0.77 ± 0.42 | – |
| CC(=O)[C@H]1CCC2C3CC[C@H]4C[C@@](C)(O)CC[C@]4(C)C3CC[C@@]21C (stereo partly drawn) [Epi-GX, epi-ganaxolone] | do not | – | – | −0.67 ± 0.30 | – |
| CO[C@H]1CCC2C3CC[C@H]4C[C@H](O)CC[C@]4(C)C3CC[C@@]21C (stereo partly drawn) [YX03] | enhances; also recorded: potentiates | blocked | −0.98 ± 0.37 | – | prevention of AlloP induced quenching (ELIC-α1GABAAR [4]): partially prevents; quenching of ELIC-α1GABAAR tryptophan fluorescence (ELIC-α1GABAAR [4]; YX03 10 and 30 µM): absent; also recorded: does not quench |
| CC(=O)[C@H]1CC[C@H]2[C@@H]3CC[C@@H]4C[C@H](O)CC[C@]4(C)[C@H]3CC[C@]12C [PREG, pregnanolone] | – | – | −1.02 ± 0.35 | – | – |
